The text below walks through data of PubChem BioAssay AID248 (DTP/NCI, 2004).

The test system of this assay is L1210 leukemia ip in BDF1 mice, survival T/C. The experiment in a line: NCI In Vivo Anticancer Drug Screen. Data for tumor model L1210 Leukemia (intraperitoneal) in B6D2F1 (BDF1) mice. The following applies: endpoint: mean survival time, higher = longer survival. The method, boiled down:
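Ratio derived from survival: compound-dosed mice over vehicle-dosed mice, all bearing a transplantable tumor.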

[1] abbreviates: dose: 100.0 mg/kg/injection, schedule: Q01DX001 (ip), vehicle: saline.
Setting [2] is: dose: 200.0 mg/kg/injection, schedule: Q01DX001 (ip), vehicle: saline.
[3] abbreviates: dose: 400.0 mg/kg/injection, schedule: Q01DX001 (ip), vehicle: saline.
The mark [4] stands for this setting: dose: 100.0 mg/kg/injection, schedule: Q04DX003 (ip), vehicle: saline.
[5] abbreviates: dose: 200.0 mg/kg/injection, schedule: Q04DX003 (ip), vehicle: saline.
[6] abbreviates: dose: 100.0 mg/kg/injection, schedule: Q04DX003 (ip), vehicle: Klucel (hydroxypropylcellulose) (HPC).
[7] abbreviates: dose: 200.0 mg/kg/injection, schedule: Q04DX003 (ip), vehicle: Klucel (hydroxypropylcellulose) (HPC).
[8] abbreviates: dose: 6.25 mg/kg/injection, schedule: Q04DX003 (ip), vehicle: saline.
[9] abbreviates: dose: 12.5 mg/kg/injection, schedule: Q04DX003 (ip), vehicle: saline.
[10] abbreviates: dose: 25.0 mg/kg/injection, schedule: Q04DX003 (ip), vehicle: saline.

“And” between values parts separate entries of the source, which are not always exact repeats. Identical values can stand only once. Inconclusive results and toxic doses are left out.

Turning to `CC1(C)CCCC2(C)C1CC(O)C1(CO1)C2CCC(C)(O)C1CO1` (stereo not drawn), the T/C (dose: 25.0 mg/kg/injection, schedule: Q01DX009 (ip), vehicle: DMSO) was 92 % of control; the T/C (dose: 25.0 mg/kg/injection, schedule: Q04DX003 (ip), vehicle: DMSO) was 88 % of control; the T/C (dose: 50.0 mg/kg/injection, schedule: Q01DX009 (ip), vehicle: DMSO) was 96 % of control; the T/C (dose: 50.0 mg/kg/injection, schedule: Q04DX003 (ip), vehicle: DMSO) is 93 % of control; the T/C (dose: 100.0 mg/kg/injection, schedule: Q04DX003 (ip), vehicle: DMSO) is 97 % of control and 92 % of control.
As for `C[N+]1(CCO)CC[N+](C)(CCCN2c3ccccc3Sc3ccc(Cl)cc32)CC1` (stereo not drawn), the T/C by setting is: (dose: 10.0 mg/kg/injection, schedule: Q01DX001 (ip), vehicle: carboxymethylcellulose (CMC)) 98 % of control; (dose: 20.0 mg/kg/injection, schedule: Q01DX001 (ip), vehicle: carboxymethylcellulose (CMC)) 101 % of control; (dose: 40.0 mg/kg/injection, schedule: Q01DX001 (ip), vehicle: carboxymethylcellulose (CMC)) 113 % of control.
On to `COc1ccc(NC(=O)OCCN(CCOC(=O)Nc2ccc(OC)cc2)Cc2ccccc2)cc1`, for which the T/C runs as follows: under setting [1], 94 % of control; under setting [2], 96 % of control; under setting [3], 100 % of control.
On to `CN=C(NC)c1ccc(NC(=O)c2ccc(C(=O)Nc3ccc(C(=NC)NC)cc3)cc2)cc1`, for which the T/C reads like this: (dose: 0.23 mg/kg/injection, schedule: Q01DX Z (ip), vehicle: methylcellulose (MC)) 96 % of control and 124 % of control; (dose: 0.9 mg/kg/injection, schedule: Q01DX Z (ip), vehicle: methylcellulose (MC)) 110 % of control and 177 % of control and 205 % of control; (dose: 1.87 mg/kg/injection, schedule: Q01DX Z (ip), vehicle: methylcellulose (MC)) 150 % of control; (dose: 1.9 mg/kg/injection, schedule: Q01DX Z (ip), vehicle: methylcellulose (MC)) 124 % of control; (dose: 3.75 mg/kg/injection, schedule: Q01DX Z (ip), vehicle: methylcellulose (MC)) 161 % of control; (dose: 7.5 mg/kg/injection, schedule: Q01DX Z (ip), vehicle: methylcellulose (MC)) 160 % of control. In addition, the T/C was 124 % of control (dose: 15.0 mg/kg/injection, schedule: Q01DX Z (ip), vehicle: methylcellulose (MC)); 111 % of control (dose: 15.0 mg/kg/injection, schedule: Q01DX Z (oral), vehicle: carboxymethylcellulose (CMC)); 108 % of control (dose: 30.0 mg/kg/injection, schedule: Q01DX Z (ip), vehicle: methylcellulose (MC)); 102 % of control (dose: 30.0 mg/kg/injection, schedule: Q01DX Z (oral), vehicle: carboxymethylcellulose (CMC)); 107 % of control (dose: 60.0 mg/kg/injection, schedule: Q01DX Z (oral), vehicle: carboxymethylcellulose (CMC)); 96 % of control (dose: 120.0 mg/kg/injection, schedule: Q01DX Z (oral), vehicle: carboxymethylcellulose (CMC)). Moreover, the T/C reads like this: (dose: 240.0 mg/kg/injection, schedule: Q01DX Z (oral), vehicle: carboxymethylcellulose (CMC)) 115 % of control; (dose: 480.0 mg/kg/injection, schedule: Q01DX Z (oral), vehicle: carboxymethylcellulose (CMC)) 113 % of control.
Consider `O=P(O)(O)OCC(O)CF` (stereo not drawn), for which the T/C by setting is: (dose: 2.5 mg/kg/injection, schedule: Q01DX009 (ip), vehicle: saline) 89 % of control; (dose: 5.0 mg/kg/injection, schedule: Q01DX009 (ip), vehicle: saline) 93 % of control; (dose: 10.0 mg/kg/injection, schedule: Q01DX009 (ip), vehicle: saline) 94 % of control; (dose: 44.0 mg/kg/injection, schedule: Q04DX003 (ip), vehicle: saline) 109 % of control; (dose: 88.0 mg/kg/injection, schedule: Q04DX003 (ip), vehicle: saline) 100 % of control; (dose: 115.5 mg/kg/injection, schedule: Q04DX003 (ip), vehicle: saline) 96 % of control. Moreover, the T/C (dose: 175.0 mg/kg/injection, schedule: Q04DX003 (ip), vehicle: saline) was 92 % of control.
With `OCCNCc1ccc2ccccc2c1`, for the setting “dose: 150.0 mg/kg/injection, schedule: Q01DX015 (ip), vehicle: saline”, the T/C is 90 % of control.
For `CN1C(C(=O)c2ccccc2)C1C(=O)c1ccccc1` (stereo not drawn), the T/C runs as follows: (dose: 75.0 mg/kg/injection, schedule: Q04DX003 (ip), vehicle: carboxymethylcellulose (CMC)) 112 % of control; (dose: 150.0 mg/kg/injection, schedule: Q04DX003 (ip), vehicle: carboxymethylcellulose (CMC)) 102 % of control; (dose: 300.0 mg/kg/injection, schedule: Q04DX003 (ip), vehicle: carboxymethylcellulose (CMC)) 102 % of control.
As for `O=C(O)c1ccc(C(=O)O)c(O)c1O`, the T/C (dose: 50.0 mg/kg/injection, schedule: Q01DX009 (ip), vehicle: saline) was 120 % of control; the T/C under setting [1] is 100 % of control; the T/C (dose: 100.0 mg/kg/injection, schedule: Q01DX009 (ip), vehicle: saline) is 105 % of control; the T/C under setting [4] is 89 % of control; the T/C under setting [2] was 92 % of control; the T/C (dose: 200.0 mg/kg/injection, schedule: Q01DX009 (ip), vehicle: saline) is 116 % of control. Moreover, the T/C is, setting by setting: under setting [5], 96 % of control; under setting [3], 94 % of control.
With `COC(=O)c1cc(=O)c2c(Cl)cccc2[nH]1`, the T/C reads like this: under setting [4], 96 % of control; under setting [5], 110 % of control; (dose: 400.0 mg/kg/injection, schedule: Q04DX003 (ip), vehicle: saline) 95 % of control.
As to `CC(C)CCCC(C)C1CCC2C3CCC4(C)CCCCC4(C)C3CCC12C` (stereo not drawn), the T/C is, setting by setting: (dose: 100.0 mg/kg/injection, schedule: Q01DX001 (ip), vehicle: Klucel (hydroxypropylcellulose) (HPC)) 98 % of control; (dose: 200.0 mg/kg/injection, schedule: Q01DX001 (ip), vehicle: Klucel (hydroxypropylcellulose) (HPC)) 94 % of control; (dose: 400.0 mg/kg/injection, schedule: Q01DX001 (ip), vehicle: Klucel (hydroxypropylcellulose) (HPC)) 109 % of control.
Take `O=c1[nH]c(-c2ccc(O)cc2)nc2[nH]ncc12`: the T/C was 88 % of control under setting [6] and 86 % of control under setting [7].
For the compound `O=C(O)C1CCC2CCCCC2[N-]1.O=C(O)C1CCC2CCCCC2[N-]1.[Cu+2]` (stereo not drawn), the T/C (dose: 6.25 mg/kg/injection, schedule: Q01DX009 (ip), vehicle: saline) is 97 % of control; the T/C under setting [8] is 105 % of control; the T/C (dose: 12.5 mg/kg/injection, schedule: Q01DX009 (ip), vehicle: saline) was 90 % of control; the T/C under setting [9] was 100 % of control; the T/C (dose: 25.0 mg/kg/injection, schedule: Q01DX009 (ip), vehicle: saline) was 97 % of control; the T/C under setting [10] was 94 % of control.
Take `O=C(N/N=C/c1ccc2c(c1)OCO2)c1cccc2ccccc12`: the T/C by setting is: under setting [1], 97 % of control; under setting [2], 86 % of control; under setting [3], 97 % of control.
For `CCC(Nc1ccccc1)C(=O)O` (stereo not drawn), the T/C reads like this: under setting [1], 96 % of control; under setting [2], 100 % of control; under setting [3], 102 % of control.
As for `CCOC(=O)NC1=C(NCCCl)C(=O)C(NC(=O)OCC)=C(NCCCl)C1=O`, the T/C is 92 % of control under setting [8]; 95 % of control under setting [9]; 106 % of control under setting [10]; 104 % of control (dose: 50.0 mg/kg/injection, schedule: Q04DX003 (ip), vehicle: saline); 90 % of control under setting [4].
For the compound `CC1([N+](=O)[O-])COP(=O)(NC2CCCC2)OC1` (stereo not drawn), the T/C (dose: 50.0 mg/kg/injection, schedule: Q01DX001 (ip), vehicle: saline) is 106 % of control; the T/C under setting [1] is 108 % of control; the T/C under setting [2] is 102 % of control.
For the compound `Br[CH2][Sn]([Br])([Br])[CH2]Br`, the T/C by setting is: (dose: 6.25 mg/kg/injection, schedule: Q04DX002 (ip), vehicle: saline with Tween-80) 101 % of control; (dose: 12.5 mg/kg/injection, schedule: Q04DX002 (ip), vehicle: saline with Tween-80) 101 % of control; (dose: 25.0 mg/kg/injection, schedule: Q04DX002 (ip), vehicle: saline with Tween-80) 116 % of control.
On to `Nc1cccc(C(O)c2ccccc2)c1` (stereo not drawn), for which the T/C runs as follows: under setting [6], 90 % of control; under setting [7], 92 % of control; (dose: 400.0 mg/kg/injection, schedule: Q04DX003 (ip), vehicle: Klucel (hydroxypropylcellulose) (HPC)) 95 % of control.
